For orientation: IC50 means the concentration that gives 50% inhibition. Low readings indicate higher potency, high ones lower potency. As a reminder, the GI50 is the concentration giving 50% growth inhibition.

One data set has as its system HT29. Kind of data set: cells. The class given is cell-based. Conditions: for GI50 / IC (TGI) / CC50 / TGI: HT29, 48 hours exposure, SRB; for CC50: read-out: LC50 (the source's name). From the text: (§1) The finality of these assays is to interrupt the growth of a “in vitro” tumor cell culture by means of a continued exhibition of the cells to the sample to be testing.
(§2) A colorimetric type of assay, using sulphorhodamine B (SRB) reaction has been adapted for a quantitative measurement of cell growth and viability [following the technique described by Philip Skehan, et al. (1990), New colorimetric cytotoxicity assay for anticancer drug screening, J. Natl. Cancer Inst., 82:1107-1112]
(§3) This form of the assay employs 96 well cell culture microplates of 9 mm diameter (Faircloth, 1988; Mosmann, 1983). Most of the cell lines are obtained from American Type Culture Collection (ATCC) derived from different human cancer types.
(§4) Cells are maintained in RPMI 1640 10% FBS, supplemented with 0.1 g/l penicillin and 0.1 g/l streptomycin sulphate and then incubated at 37° C., 5% CO2 and 98% humidity. For the experiments, cells were harvested from subconfluent cultures using trypsin and resuspended in fresh medium before plating.
(§5) Cells are seeded in 96 well microtiter plates, at 5×10^3 cells per well in aliquots of 195 μl medium, and they are allowed to attach to the plate surface by growing in drug free medium for 18 hours. Afterward, samples are added in aliquots of 5 μl in a ranging from 10 to 10^−8 μg/ml, dissolved in DMSO/EtOH/PBS (0.5:0.5:99). After 48 hours exposure, the antitumor effect are measured by the SRB methodology: cells are fixed by adding 50 μl of cold 50% (wt/vol) trichloroacetic acid (TCA) and incubating for 60 minutes at 4° C. Plates are washed with deionized water and dried. One hundred μl of SRB solution (0.4% wt/vol in 1% acetic acid) is added to each microtiter well and incubated for 10 minutes at room temperature. Unbound SRB is removed by washing with 1% acetic acid. Plates are air dried and bound stain is solubilized with Tris buffer. Optical densities are read on a automated spectrophotometric plate reader at a single wavelength of 490 nm.
(§6) The values for mean+/− SD of data from triplicate wells are calculated. Some parameters for cellular responses can be calculated: GI=growth inhibition, TGI=total growth inhibition (cytostatic effect) and LC=cell killing (cytotoxic effect).

For a further data set, the system named is A549. Kind of data set: cells. It counts as cell-based. The note with it: for GI50 / CC50 / IC (TGI) / TGI: A549, 48 hours exposure, SRB; for GI50: read-out: GI50; for CC50: read-out: LC50 (the source's name); for IC (TGI): read-out: TGI.
From the text: as §1, §2, §3, §4, §5, §6

Structures are written as SMILES. Read-outs that look alike come from different tables or passages of the source.

In the case of `COc1c(C)cc2c(c1O)[C@@H]1C3[C@@H]4SC[C@]5(NCCc6c5[nH]c5ccccc65)C(=O)COC[C@@H](c5c6c(c(C)c(OC(C)=O)c54)OCO6)N3[C@@H](C#N)[C@H](C2)N1C` (some centres unmarked) [Compound 1], the IC50 in the data set with HT29 (Homo sapiens, HT-29, HT29) came out at 1.31 nM; in the data set on A549 (Homo sapiens, A549), 1.31 nM.
Regarding `COc1ccc2[nH]c3c(c2c1)CCN[C@]31CS[C@@H]2c3c(OC(C)=O)c(C)c4c(c3[C@H](COCC1=O)N1C2[C@H]2c3c(cc(C)c(OC)c3O)C[C@@H]([C@@H]1C#N)N2C)OCO4` (some centres unmarked) [Compound 2], in the data set with HT29 (Homo sapiens, HT-29, 48 h), halving of growth (GI50) required 1.26 nM, the IC (TGI) came to 1.26 nM and the CC50 was determined as 63000 nM. In the data set on A549 (Homo sapiens, A549, 48 h), the GI50 amounted to 0.63 nM, the CC50 was 63000 nM and the IC (TGI) was found to be 6.3 nM.
For the compound `COc1c(C)cc2c(c1O)[C@@H]1C3[C@@H]4SC[C@]5(NCCc6c5[nH]c5c(OCc7ccccc7)cccc65)C(=O)COC[C@@H](c5c6c(c(C)c(OC(C)=O)c54)OCO6)N3[C@@H](C#N)[C@H](C2)N1C` (some centres unmarked) [Compound 3], in the data set with HT29 (Homo sapiens, HT-29, 48 h), the GI50 is 230 nM, the IC (TGI) is 230 nM and the CC50 amounted to 57500 nM. Moreover, in the data set with A549 (Homo sapiens, A549, 48 h), the GI50 was determined as 345 nM, the CC50 came to 57500 nM and the IC (TGI) came to 3450 nM.
`COc1c(C)cc2c(c1O)[C@@H]1C3[C@@H]4SC[C@]5(NCCc6c5[nH]c5ccc(OCc7ccccc7)cc65)C(=O)COC[C@@H](c5c6c(c(C)c(OC(C)=O)c54)OCO6)N3[C@@H](C#N)[C@H](C2)N1C` (some centres unmarked) [Compound 4]: in the data set on HT29 (Homo sapiens, HT-29, 48 h), the GI50 worked out at 2300 nM, the IC (TGI) is 2300 nM and the CC50 worked out at 11500 nM. Besides, in the data set on A549 (Homo sapiens, A549, 48 h), the GI50 turned out to be 2300 nM, the CC50 amounted to 11500 nM and the IC (TGI) stood at 6900 nM.
As for `COc1c(C)cc2c(c1O)[C@@H]1C3[C@@H]4SC[C@]5(NCCc6c5[nH]c5ccc(C)cc65)C(=O)COC[C@@H](c5c6c(c(C)c(OC(C)=O)c54)OCO6)N3[C@@H](C#N)[C@H](C2)N1C` (some centres unmarked) [Compound 5], in the data set on HT29 (Homo sapiens, HT-29, 48 h), the GI50 came out at 12.9 nM, the IC (TGI) is 12.9 nM and the CC50 is 5140 nM. Moreover, in the data set with A549 (Homo sapiens, A549, 48 h), the GI50 is 12.9 nM, the CC50 amounted to 12900 nM and the IC (TGI) turned out to be 129 nM.
As for `COc1c(C)cc2c(c1O)[C@@H]1C3[C@@H]4SC[C@]5(NCCc6c5[nH]c5ccc(O)cc65)C(=O)COC[C@@H](c5c6c(c(C)c(OC(C)=O)c54)OCO6)N3[C@@H](C#N)[C@H](C2)N1C` (some centres unmarked) [Compound 6], in the data set with HT29 (Homo sapiens, HT-29, 48 h), halving of growth (GI50) required 5.13 nM, the IC (TGI) came to 5.13 nM and the CC50 amounted to 5130 nM. Besides, in the data set on A549 (Homo sapiens, A549, 48 h), the GI50 was determined as 5.13 nM, the CC50 was 12800 nM and the IC (TGI) turned out to be 51.3 nM.
Regarding `COc1c(C)cc2c(c1O)[C@@H]1C3[C@@H]4SC[C@]5(NCCc6c5[nH]c5cc(F)ccc65)C(=O)COC[C@@H](c5c6c(c(C)c(OC(C)=O)c54)OCO6)N3[C@@H](C#N)[C@H](C2)N1C` (some centres unmarked) [Compound 7], in the data set on HT29 (Homo sapiens, HT-29, 48 h), growth was halved (GI50) at 63.9 nM, the IC (TGI) was 63.9 nM and the CC50 turned out to be 1280 nM. Besides, in the data set with A549 (Homo sapiens, A549, 48 h), the GI50 worked out at 767 nM, the CC50 was determined as 1280 nM and the IC (TGI) is 128 nM.
For the compound `COc1c(C)cc2c(c1O)[C@@H]1C3[C@@H]4SC[C@]5(C(=O)COC[C@@H](c6c7c(c(C)c(OC(C)=O)c64)OCO7)N3[C@@H](C#N)[C@H](C2)N1C)c1[nH]c2ccc(O)cc2c1CCN5C` (some centres unmarked) [Compound 8], in the data set with HT29 (Homo sapiens, HT-29, 48 h), the GI50 amounted to 2.52 nM, the IC (TGI) turned out to be 2.52 nM and the CC50 was 5040 nM. In addition, in the data set with A549 (Homo sapiens, A549, 48 h), the GI50 is 2.52 nM, the CC50 is 12600 nM and the IC (TGI) was 10.1 nM.
Consider `COc1ccc2c3c([nH]c2c1)[C@@]1(CS[C@@H]2c4c(OC(C)=O)c(C)c5c(c4[C@H](COCC1=O)N1C2[C@H]2c4c(cc(C)c(OC)c4O)C[C@@H]([C@@H]1C#N)N2C)OCO5)NCC3` (some centres unmarked) [Compound 9], for which, in the data set on HT29 (Homo sapiens, HT-29, 48 h), it took 378 nM to inhibit growth by half (GI50), the IC (TGI) was found to be 378 nM and the CC50 was found to be 12600 nM. Also, in the data set with A549 (Homo sapiens, A549, 48 h), the GI50 was 25.2 nM, the CC50 was found to be 8820 nM and the IC (TGI) came to 101 nM.
For `COc1c(C)cc2c(c1O)[C@@H]1C3[C@@H]4SC[C@]5(NCCc6c5[nH]c5ccc(F)cc65)C(=O)COC[C@@H](c5c6c(c(C)c(OC(C)=O)c54)OCO6)N3[C@@H](C#N)[C@H](C2)N1C` (some centres unmarked) [Compound 10], in the data set with HT29 (Homo sapiens, HT-29, 48 h), the GI50 came to 40.3 nM, the IC (TGI) amounted to 12800 nM and the CC50 is 12800 nM. Also, in the data set on A549 (Homo sapiens, A549, 48 h), the GI50 came to 39.1 nM, the CC50 came to 12800 nM and the IC (TGI) is 128 nM.
As for `COc1c(C)cc2c(c1O)[C@@H]1C3[C@@H]4SC[C@]5(NCCc6c5[nH]c5c(C)cccc65)C(=O)COC[C@@H](c5c6c(c(C)c(OC(C)=O)c54)OCO6)N3[C@@H](C#N)[C@H](C2)N1C` (some centres unmarked) [Compound 11], in the data set with HT29 (Homo sapiens, HT-29, 48 h), it took 30.9 nM to inhibit growth by half (GI50), the IC (TGI) worked out at 129 nM and the CC50 was determined as 12900 nM. Besides, in the data set on A549 (Homo sapiens, A549, 48 h), the GI50 worked out at 18.9 nM, the CC50 stood at 129 nM and the IC (TGI) was 50 nM.
In the data set on HT29, `COc1c(C)cc2c(c1O)[C@@H]1C3[C@@H]4SC[C@]5(NC(C)Cc6c5[nH]c5ccc(O)cc65)C(=O)COC[C@@H](c5c6c(c(C)c(OC(C)=O)c54)OCO6)N3[C@@H](C#N)[C@H](C2)N1C` (some centres unmarked) [Compound 12] showed a GI50 of 13.7 nM and a TGI of 1.26E−07 Molar. Moreover, the CC50 in the data set on HT29 (Homo sapiens, HT-29, 48 h) was 12600 nM. In addition, in the data set with A549 (Homo sapiens, A549, 48 h), the GI50 came to 7.28 nM, the CC50 was determined as 12600 nM and the IC (TGI) was 83.5 nM.
In the case of `COc1c(C)cc2c(c1O)[C@@H]1C3[C@@H]4SC[C@]5(NC(C)Cc6c5[nH]c5ccc(O)cc65)C(=O)COC[C@@H](c5c6c(c(C)c(OC(C)=O)c54)OCO6)N3[C@@H](C#N)[C@H](C2)N1C` (some centres unmarked) [Compound 13], in the data set on HT29, it took 333 nM to inhibit growth by half (GI50), the TGI came out at 1.26E−06 Molar and the CC50 was determined as 12600 nM. For the same compound, in the data set with A549, the TGI is on record as 6.79E−08 Molar, the GI50 came out at 6.31 nM and the CC50 was 12600 nM.
Regarding `COc1c(C)cc2c(c1O)[C@@H]1C3[C@@H]4SC[C@]5(C(=O)COC[C@@H](c6c7c(c(C)c(OC(C)=O)c64)OCO7)N3[C@@H](C#N)[C@H](C2)N1C)c1[nH]c2ccccc2c1CCN5C` (some centres unmarked) [Compound 15], the figures for the GI50 in the data set with HT29 and in the data set with A549 were 4.16 nM and 4.78 nM, respectively. In addition, the TGI with HT29 and in the data set with A549 was 1.31E−08 Molar throughout. Also, the CC50 turned out to be 13100 nM in the data set on HT29 (Homo sapiens, HT-29, 48 h) and 1270 nM with A549.
For the compound `COc1c(C)cc2c(c1O)[C@@H]1C3[C@@H]4SC[C@]5(NC(C)Cc6c5[nH]c5ccc(F)cc65)C(=O)COC[C@@H](c5c6c(c(C)c(OC(C)=O)c54)OCO6)N3[C@@H](C#N)[C@H](C2)N1C` (some centres unmarked) [Compound 16], the TGI in the data set with HT29 and in the data set with A549 was 1.28E−07 Molar throughout. The GI50 was found to be 42.8 nM in the data set with HT29 (Homo sapiens, HT-29, 48 h) and 36.7 nM in the data set on A549. The CC50 worked out at 12800 nM with HT29 (Homo sapiens, HT-29, 48 h) and 4440 nM in the data set with A549 (Homo sapiens, A549, 48 h).
For `COc1c(C)cc2c(c1O)[C@@H]1C3[C@@H]4SC[C@]5(NC(C)Cc6c5[nH]c5ccc(F)cc65)C(=O)COC[C@@H](c5c6c(c(C)c(OC(C)=O)c54)OCO6)N3[C@@H](C#N)[C@H](C2)N1C` (some centres unmarked) [Compound 17], in the data set with HT29, the GI50 turned out to be 22.2 nM, the TGI is 1.28E−08 Molar and the CC50 is 12800 nM. Moreover, in the data set on A549, the TGI came to 4.41E−08 Molar, the GI50 amounted to 5.39 nM and the CC50 is 6670 nM.
